Results from publication PMC10923852, “Gustavson syndrome is caused by an in-frame deletion in RBMX associated with potentially disturbed SH3 domain interactions” (European Journal of Human Genetics, 2023).
Values belong to the molecule of their own block, whether it stands above or below them. Where a SMILES comes first, the peptide text is derived from it. Where no end group is shown, it is not given here.

Tests used:
ASAP1-SH3 [1] = biological target: T1, ASAP1-SH3 (Homo sapiens, UniProt Q9ULH1); assay: Fluorescence polarization saturation binding, ASAP1-SH3 domain with FITC-labeled hnRNP G peptide; conditions: FITC-labeled peptide 10 nM
T1 construct: Two SH3 domains were expressed and purified: ASAP1-SH3 (Addgene: 91501), BIN1-SH3 (GenScript); GST (cleaved yes); host or cells: E. coli BL21-DE3 GOLD
T1 sequence (Q9ULH1 1067-1129 limits assumed): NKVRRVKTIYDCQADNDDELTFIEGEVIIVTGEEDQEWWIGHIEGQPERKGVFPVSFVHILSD
Protocol: (§1) To further investigate if the tri-proline region spanning the variant had the capacity to interact with SH3 domains, a fluorescence polarization assay with hnRNP G peptides and SH3 domains were performed. Wildtype and mutant (△P162) hnRNP G peptides of different lengths spanning the region of interest (P38159) were ordered from Genecast (Supplementary material 2) with or without Fluorescein isothiocyanate (FITC)-label (purity >95%, dissolved in 50 mM potassium phosphate pH 7.5). Two SH3 domains were expressed and purified: ASAP1-SH3 (Addgene: 91501), BIN1-SH3 (GenScript) according to standard protocol (Supplementary material 2). […]
(§2) To determine the affinity between BIN-SH3 domain and the non-labeled hnRNP G peptides, displacement experiments were performed where the fixed concentration of FITC-labeled peptide and protein was mixed with an increasing concentration of displacer non-labeled peptide. […] All results were analyzed with GraphPad Prism to determine the dissociation constant for labeled peptide and the IC50 values, and Microsoft Excel was used to calculate KD from IC50. All fluorescence polarization experiments were performed in 50 mM potassium phosphate pH 7.5, containing 1 mM tris(2-carboxyethyl)phosphine (TCEP). […]

BIN1-SH3 [2] = biological target: T2, BIN1-SH3 (Homo sapiens, UniProt O00499); assay: Fluorescence polarization saturation binding, BIN1-SH3 domain with FITC-labeled hnRNP G peptide; conditions: FITC-labeled peptide 10 nM
T2 construct: GST (cleaved yes); Genecast (peptides); host or cells: E. coli BL21-DE3 GOLD
T2 sequence (O00499 520-593 limits assumed): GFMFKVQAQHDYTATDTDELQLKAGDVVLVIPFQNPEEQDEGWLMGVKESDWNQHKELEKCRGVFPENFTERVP
Protocol: as §1, §2

BIN1-SH3 [3] = biological target: T2, BIN1-SH3; assay: Fluorescence polarization displacement, BIN1-SH3 domain with non-labeled hnRNP G peptides; format: binding; conditions: for binding affinity for BIN1-SH3 (in words): fluorescence polarization, 50 mM potassium phosphate pH 7.5, 1 mM TCEP
Protocol: (§3) To further investigate if the tri-proline region spanning the variant had the capacity to interact with SH3 domains, a fluorescence polarization assay with hnRNP G peptides and SH3 domains were performed. Wildtype and mutant (△P162) hnRNP G peptides of different lengths spanning the region of interest (P38159) were ordered from Genecast (Supplementary material 2) with or without Fluorescein isothiocyanate (FITC)-label (purity >95%, dissolved in 50 mM potassium phosphate pH 7.5). Two SH3 domains were expressed and purified: ASAP1-SH3 (Addgene: 91501), BIN1-SH3 (GenScript) according to standard protocol (Supplementary material 2).
(§4) To determine the affinity between BIN-SH3 domain and the non-labeled hnRNP G peptides, displacement experiments were performed where the fixed concentration of FITC-labeled peptide and protein was mixed with an increasing concentration of displacer non-labeled peptide. The mP signal was investigated to determine the IC50 values, which were then converted to dissociation constants as previously described. All results were analyzed with GraphPad Prism to determine the dissociation constant for labeled peptide and the IC50 values, and Microsoft Excel was used to calculate KD from IC50. All fluorescence polarization experiments were performed in 50 mM potassium phosphate pH 7.5, containing 1 mM tris(2-carboxyethyl)phosphine (TCEP).
SH3 domains were expressed by transforming expression constructs into E. coli (BL21-DE3 GOLD) and grown in LB media with 50 µg/ml ampicillin (ASAP1) or 50 µg/ml kanamycin (BIN1) at 37°C until reaching an OD600 of 0.6. Protein expression was induced with 1mM isopropyl-β-thiogalactopyranoside and the protein expression proceeded overnight at 18 °C. Cells were harvested and resuspended in lysis buffer (50 mM Tris/HCl pH 7.8, 10 µg/mL DNase I and RNase A (Hoffman-La Roche, Switzerland), 300 mM NaCl, 4 mM MgCl2, 2 mM CaCl2 and cOmplete EDTA-free Protease Inhibitor Cocktail (Hoffman-La Roche)) and lysed by sonication. Cell lysate was clarified by centrifugation at 20,000 g for 40 min, filtered and transferred to Glutathione Sepharose 4 Fast Flow media (GE Healthcare). After 30-minute incubation, glutathione media was washed with wash buffer (50 mM Tris/HCl pH 7.8 300 mM NaCl, 4 mM DTT), eluted with elution buffer (50 mM Tris/HCl pH 7.8 300 mM NaCl, 4 mM DTT, 10 mM reduced glutathione), and the GST-tag was cleaved overnight with PreScission protease (BIN1) or Thrombin (ASAP1). Next day the cleaved protein was applied to a […] to remove the tag, and pure protein was dialyzed into 50 mM potassium phosphate buffer pH 7.4, and concentrated using the Amicon ultra 15ml centrifugal filters (3kDa cutoff, Merck Millipore, UFC900308). Purity of the sample was analyzed by SDS-PAGE and its identity confirmed by MALDI-TOF mass spectrometry. The sample was then frozen until fluorescence polarization experiments were performed.

ASAP1-SH3 [4] = biological target: T1, ASAP1-SH3; assay: Fluorescence polarization displacement, ASAP1-SH3 domain; format: binding
Protocol: as §3
as §4, with “(TCEP). […]” for “(TCEP).”

BIN1 SH3 [5] = biological target: T3, BIN1 SH3 (Homo sapiens, UniProt O00499); assay: fluorescence polarization displacement
T3 chain: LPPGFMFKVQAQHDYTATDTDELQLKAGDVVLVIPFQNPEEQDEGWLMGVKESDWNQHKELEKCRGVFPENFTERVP

ASAP1 SH3 = biological target: T4, ASAP1 SH3 (Homo sapiens, UniProt Q9ULH1); assay: fluorescence polarization saturation
T4 chain: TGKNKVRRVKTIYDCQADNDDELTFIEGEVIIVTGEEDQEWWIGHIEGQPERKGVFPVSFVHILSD

BIN1 SH3 [6] = biological target: T3, BIN1 SH3; assay: fluorescence polarization saturation

binding to ASAP1-SH3 (in words) (ASAP1-SH3 [1]): binding with moderate affinities
binding to BIN1-SH3 (in words) (BIN1-SH3 [2]): binding with moderate affinities
Molecule: 150-KRGPPPRSGGPPPKRSAPSGPy-170 [hnRNP G aa 150-170, wildtype FITC, FITC-labeled wildtype hnRNP G peptide, residues 150-170]

Molecule: C[C@H](NC(=O)[C@H](CO)NC(=O)[C@H](CCCNC(=N)N)NC(=O)[C@H](CCCCN)NC(=O)[C@@H]1CCCN1C(=O)[C@@H]1CCCN1C(=O)[C@@H]1CCCN1C(=O)CNC(=O)CNC(=O)[C@H](CO)NC(=O)[C@H](CCCNC(=N)N)NC(=O)[C@@H]1CCCN1C(=O)[C@@H]1CCCN1C(=O)CNC(=O)[C@H](CCCNC(=N)N)NC(=O)[C@@H](N)CCCCN)C(=O)N1CCC[C@H]1C(=O)N[C@@H](CO)C(=O)NCC(=O)N1CCC[C@H]1C(=O)N[C@@H](Cc1ccc(O)cc1)C(=O)O [hnRNP G aa 150-170, △P162] (H-KRGPPRSGGPPPKRSAPSGPY-OH; N-terminus and C-terminus assumed)
binding affinity for BIN1-SH3 (in words) (BIN1-SH3 [3]): no clear difference in binding affinity compared to the wildtype peptide
binding affinity for BIN1-SH3 (in words) (BIN1-SH3 [3]; listed as longer hnRNP G peptide, △P162 variant): no clear difference in SH3 binding affinity between the wildtype and the mutant peptide

binding affinity for ASAP1-SH3 (in words) (ASAP1-SH3 [4]): moderate affinities
binding affinity for BIN1-SH3 (in words) (BIN1-SH3 [3]): moderate affinities
binding affinity for BIN1-SH3 (in words) (BIN1-SH3 [3]; listed as shorter hnRNP G peptide (aa 156–169)): weaker but comparable affinity
Molecule: C[C@H](NC(=O)[C@H](CO)NC(=O)[C@H](CCCNC(=N)N)NC(=O)[C@H](CCCCN)NC(=O)[C@@H]1CCCN1C(=O)[C@@H]1CCCN1C(=O)[C@@H]1CCCN1C(=O)CNC(=O)CNC(=O)[C@H](CO)NC(=O)[C@@H](N)CCCNC(=N)N)C(=O)N1CCC[C@H]1C(=O)N[C@@H](CO)C(=O)NCC(=O)N[C@@H](Cc1ccc(O)cc1)C(=O)O [hnRNP G aa 156-169, wildtype] (H-RSGGPPPKRSAPSGY-OH; N-terminus and C-terminus assumed)

binding affinity for BIN1-SH3 (in words) (BIN1-SH3 [3]): reduced binding affinity
affinity for BIN1-SH3 relative to wildtype peptide (fold) (BIN1-SH3 [3]; short peptide aa 156–169 △P162 vs wildtype): threefold weaker affinity
Molecule: C[C@H](NC(=O)[C@H](CO)NC(=O)[C@H](CCCNC(=N)N)NC(=O)[C@H](CCCCN)NC(=O)[C@@H]1CCCN1C(=O)[C@@H]1CCCN1C(=O)CNC(=O)CNC(=O)[C@H](CO)NC(=O)[C@@H](N)CCCNC(=N)N)C(=O)N1CCC[C@H]1C(=O)N[C@@H](CO)C(=O)NCC(=O)N[C@@H](Cc1ccc(O)cc1)C(=O)O [hnRNP G aa 156-169, △P162] (H-RSGGPPKRSAPSGY-OH; N-terminus and C-terminus assumed)

Kd (BIN1 SH3 [5]): 40 µM
Molecule: KRGPPPRSGGPPPKRSAPSGP

Kd (BIN1 SH3 [5]): 150 µM
Molecule: RSGGPPPKRSAPSG [hnRNP G 156-169]

Kd (ASAP1 SH3): ~400 µM
Kd (BIN1 SH3 [6]): ~400 µM
Molecule: KRGPPPRSGGPPPKRSAPSGP (also: FITC-labeled, site not given here)
